1 molecule from US12128012B2, “Ketamine treatment for amyotrophic lateral sclerosis” (University of Kansas, priority 2020, dated 2024) can be followed below.

The structures appear in SMILES notation.

Assay type in all cases: in vivo
Assay [1] deals with SOD1-G93A mouse model of ALS. The assay can be described thus: Body weight in SOD1-G93A mice under ketamine. The source says: (§1) Testing can be performed in SOD1-G93A mice as follows. Body weight and grip strength during a hanging wire test can be measured 3 days a week beginning at 90 days of age (presymptomatic). Drug injections can be made immediately after motor testing. Mice can be tested until they reach end-stage as defined by loss of righting reflex for 30 seconds or if they are found dead in their cage. At death, the muscles (soleus, tibialis anterior, and diaphragm) and brains can be harvested for histological analyses. Comparisons of neuromuscular junction innervation and myosin heavy chain isoforms can be made between the treatment groups. Experiments can determine cortical motor neuronal integrity using standard histological methods.
(§2) Experiments were performed to determine the effects of daily sub-anesthetic doses (e.g., less than 100 mg/kg) of ketamine on the SOD1-G93A mouse model of ALS. The method included administering two doses of ketamine (e.g., 10 mg/kg and 30 mg/kg) and a saline vehicle to three groups of SOD1-G93A mice per day for 5 days per week beginning at 90 days of age. The method included measuring body weight, grip strength, and survival.
The three groups (e.g., 12 mice per group with intraperitoneal injection): vehicle (e.g., 0), 10 mg/kg (e.g., 10), and 30 mg/kg (e.g., 30) are shown (p=0.06). […] As such, the 10 mg/kg dosage may be useful for ALS patients. […] Accordingly, increasing the amount of ketamine administered may increase the effects described herein. Any increase in life (e.g., probability of survival) can be beneficial, which may be accomplished by treatment with the ketamine compound.

Assay [2] concerns SOD1-G93A mouse model of ALS. The experiment in a line: Latency between 20% loss of body weight and death in SOD1-G93A mice. The note with it: for latency between 20% loss of body weight and death: FIG. 3 (vehicle about 2 days). As for the experimental part: as §2
Additionally, the latency in days between the day in which each mouse reached 80% of its initial body weight (i.e., 20% reduction) and the day of death as defined above was calculated. […] Accordingly, higher dosages may still provide for longer latency of life, or longer life expectancy.

The subject of assay [3] is SOD1-G93A mouse model of ALS. The assay can be described thus: Grip strength, hanging wire test, SOD1-G93A mice. As to conditions: 10 mg/kg and 30 mg/kg vs saline vehicle, 5 days per week from 90 days of age; data not shown.
Description: as §1, §2

Assay [4] concerns SOD1-G93A mouse model of ALS. The assay can be described thus: Survival (day of death) in SOD1-G93A mice.
Description: as §1, §2
As shown, treatment with the ketamine compound appears to provide a higher probability of survival for a longer period of time for both the 10 mg/kg and 30 mg/kg dosages (p=0.06; FIG. 2). […]

For `CNC1(c2ccccc2Cl)CCCCC1=O` (stereo not shown) [ketamine, 2-(2-chlorophenyl)-2-(methylamino)cyclohexan-1-one], the “effects on body weight” value in assay [1] (10 mg/kg and 30 mg/kg vs saline vehicle, 5 days per week from 90 days of age, data not shown) was “no significant effects”. In assay [1] (10 mg/kg intraperitoneal vs vehicle, FIG. 1), the “probability of survival curve for day body weight fell below 80%” value was “improvement in the probability of survival”. For the same molecule, the “loss of body weight (muscle mass), trend in survival curve” value in assay [1] (30 mg/kg intraperitoneal vs 10 mg/kg or without ketamine, FIG. 1) is “delays loss of body weight (muscle mass) for a longer period of time”. Besides, in assay [1] (vehicle, 10 mg/kg, 30 mg/kg, intraperitoneal, 12 mice per group, FIG. 1, p=0.06), the “survival analysis: day in which body weight fell below 80%, difference between the groups” value is recorded as “no significant difference”. Moreover, the “longer life expectancy than no treatment” value was “about 4 days” in assay [2] (10 mg/kg vs vehicle) and “about 8 days” in assay [2] (30 mg/kg vs vehicle). Also, the “latency between 20% loss of body weight and death” value in assay [2] (10 mg/kg) is on record as “about 6 days”; in assay [2] (30 mg/kg) it was “about 10 days”. Further, in assay [2] (30 mg/kg vs 10 mg/kg), the “longer life expectancy over the 10 mg/kg treatment” value is recorded as “about 4 days”. Moreover, in assay [2] (vehicle, 10 and 30 mg/kg, ANOVA p<0.05, FIG. 3), the “latency between 20% loss of body weight and death, effect of dose” value is given as “statistically significant dose-dependent increase”. In addition, the “effects on grip strength using the hanging wire test” value in assay [3] was “no significant effects”. The “probability of survival (day of death: loss of righting reflex for 30 seconds or found dead)” value in assay [4] (10 mg/kg vs vehicle, FIG. 2, overall p=0.06) is recorded as “some improvement over the vehicle”; in assay [4] (30 mg/kg vs vehicle, FIG. 2, p<0.05), “survived significantly longer than the vehicle-treated group”.
